# Species on record: Rattus norvegicus
# Experiment: DrugMatrix - Regimen: Daily Repeat
# Format: toxicity, organism-based, Sprague-Dawley
# Set-up: regimen Daily Repeat, gender Male, age 6-8 weeks
# Settings: in vivo, po, route oral GAVAGE, vehicle .5 % CMC; for ABSOLUTE BASOPHIL / ABSOLUTE EOSINOPHIL / ABSOLUTE LYMPHOCYTE / ABSOLUTE MONOCYTE / ABSOLUTE SEGMENTED NEUTROPHIL / BASOPHIL / EOSINOPHIL / ERYTHROCYTE COUNT / HEMATOCRIT / HEMOGLOBIN / LEUKOCYTE COUNT / LYMPHOCYTE / MEAN CORPUSCULAR HEMOGLOBIN / MEAN CORPUSCULAR HEMOGLOBIN CONCENTRATION / MEAN CORPUSCULAR VOLUME / MONOCYTE / NEUTROPHIL / NUCLEATED RED BLOOD CELLS / PLATELET COUNT: tissue Blood; for ALANINE AMINOTRANSFERASE / ALBUMIN / ALKALINE PHOSPHATASE / ASPARTATE AMINOTRANSFERASE / BLOOD UREA NITROGEN / CARBON DIOXIDE / CHLORIDE / CHOLESTEROL / CREATINE PHOSPHOKINASE / CREATININE / GLUCOSE / LACTATE DEHYDROGENASE / LIPASE / PHOSPHORUS / POTASSIUM / SODIUM / TOTAL BILIRUBIN / TOTAL PROTEIN / URIC ACID: tissue Plasma
# [1] = 0.006 mg/kg, 72 h, dose level Low, time 3 day
# [2] = 0.006 mg/kg, 120 h, dose level Low, time 5 day
# [3] = 0.04 mg/kg, 72 h, dose level High, time 3 day
# [4] = 0.04 mg/kg, 120 h, dose level High, time 5 day
structure (smiles),measurement,setting,value
C=C1/C(=C\C=C2/CCC[C@]3(C)[C@@H]([C@H](C)CCCC(C)(C)O)CC[C@@H]23)C[C@@H](O)C[C@@H]1O [CALCITRIOL],ABSOLUTE BASOPHIL,[1],0 CELLS/uL
same,ABSOLUTE EOSINOPHIL,[1],45.67 CELLS/uL
same,ABSOLUTE LYMPHOCYTE,[1],10032.33 CELLS/uL
same,ABSOLUTE MONOCYTE,[1],329.67 CELLS/uL
same,ABSOLUTE SEGMENTED NEUTROPHIL,[1],1592.33 CELLS/uL
same,BASOPHIL,[1],0%
same,EOSINOPHIL,[1],0.33%
same,ERYTHROCYTE COUNT,[1],5.61 x10E6/uL
same,HEMATOCRIT,[1],34.07%
same,HEMOGLOBIN,[1],13.17 G/DL
same,LEUKOCYTE COUNT,[1],12 x10E3/uL
same,LYMPHOCYTE,[1],84%
same,MEAN CORPUSCULAR HEMOGLOBIN,[1],23.57 pg
same,MEAN CORPUSCULAR HEMOGLOBIN CONCENTRATION,[1],38.7 G/DL
same,MEAN CORPUSCULAR VOLUME,[1],60.93 fL
same,MONOCYTE,[1],2.67%
same,NEUTROPHIL,[1],13%
same,NUCLEATED RED BLOOD CELLS,[1],0 /100WBC
same,PLATELET COUNT,[1],1046.67 x10E3/uL
same,ALANINE AMINOTRANSFERASE,[1],66.67 u/L
same,ALBUMIN,[1],3.93 G/DL
same,ALKALINE PHOSPHATASE,[1],358 u/L
same,ASPARTATE AMINOTRANSFERASE,[1],93.67 u/L
same,BLOOD UREA NITROGEN,[1],17 mg/dL
same,CARBON DIOXIDE,[1],25.33 mmol/L
same,CHLORIDE,[1],101.33 MEQ/L
same,CHOLESTEROL,[1],73 mg/dL
same,CREATINE PHOSPHOKINASE,[1],357 u/L
same,CREATININE,[1],0.21 mg/dL
same,GLUCOSE,[1],146.67 mg/dL
same,LACTATE DEHYDROGENASE,[1],503.33 u/L
same,LIPASE,[1],11 u/L
same,PHOSPHORUS,[1],13.67 mg/dL
same,POTASSIUM,[1],6.19 MEQ/L
same,SODIUM,[1],143.5 MEQ/L
same,TOTAL BILIRUBIN,[1],0.17 mg/dL
same,TOTAL PROTEIN,[1],5.8 G/DL
same,URIC ACID,[1],1.47 mg/dL
same,ABSOLUTE BASOPHIL,[2],0 CELLS/uL
same,ABSOLUTE EOSINOPHIL,[2],0 CELLS/uL
same,ABSOLUTE LYMPHOCYTE,[2],11413 CELLS/uL
same,ABSOLUTE MONOCYTE,[2],402.33 CELLS/uL
same,ABSOLUTE SEGMENTED NEUTROPHIL,[2],1784.67 CELLS/uL
same,BASOPHIL,[2],0%
same,EOSINOPHIL,[2],0%
same,ERYTHROCYTE COUNT,[2],5.87 x10E6/uL
same,HEMATOCRIT,[2],34.33%
same,HEMOGLOBIN,[2],13.57 G/DL
same,LEUKOCYTE COUNT,[2],13.6 x10E3/uL
same,LYMPHOCYTE,[2],84%
same,MEAN CORPUSCULAR HEMOGLOBIN,[2],23.17 pg
same,MEAN CORPUSCULAR HEMOGLOBIN CONCENTRATION,[2],39.53 G/DL
same,MEAN CORPUSCULAR VOLUME,[2],58.53 fL
same,MONOCYTE,[2],3%
same,NEUTROPHIL,[2],13%
same,NUCLEATED RED BLOOD CELLS,[2],0 /100WBC
same,PLATELET COUNT,[2],1088.67 x10E3/uL
same,ALANINE AMINOTRANSFERASE,[2],57.33 u/L
same,ALBUMIN,[2],4.37 G/DL
same,ALKALINE PHOSPHATASE,[2],445.33 u/L
same,ASPARTATE AMINOTRANSFERASE,[2],99.67 u/L
same,BLOOD UREA NITROGEN,[2],19 mg/dL
same,CARBON DIOXIDE,[2],31.33 mmol/L
same,CHLORIDE,[2],95.33 MEQ/L
same,CHOLESTEROL,[2],61 mg/dL
same,CREATINE PHOSPHOKINASE,[2],435 u/L
same,CREATININE,[2],0.17 mg/dL
same,GLUCOSE,[2],145 mg/dL
same,LACTATE DEHYDROGENASE,[2],606.67 u/L
same,LIPASE,[2],10.33 u/L
same,PHOSPHORUS,[2],11.6 mg/dL
same,POTASSIUM,[2],5.78 MEQ/L
same,SODIUM,[2],141.37 MEQ/L
same,TOTAL BILIRUBIN,[2],0.13 mg/dL
same,TOTAL PROTEIN,[2],6.37 G/DL
same,URIC ACID,[2],1.6 mg/dL
same,ABSOLUTE BASOPHIL,[3],0 CELLS/uL
same,ABSOLUTE EOSINOPHIL,[3],117 CELLS/uL
same,ABSOLUTE LYMPHOCYTE,[3],9651 CELLS/uL
same,ABSOLUTE MONOCYTE,[3],117 CELLS/uL
same,ABSOLUTE SEGMENTED NEUTROPHIL,[3],6315 CELLS/uL
same,BASOPHIL,[3],0%
same,EOSINOPHIL,[3],0.67%
same,ERYTHROCYTE COUNT,[3],6 x10E6/uL
same,HEMATOCRIT,[3],37.07%
same,HEMOGLOBIN,[3],14.33 G/DL
same,LEUKOCYTE COUNT,[3],16.2 x10E3/uL
same,LYMPHOCYTE,[3],57.67%
same,MEAN CORPUSCULAR HEMOGLOBIN,[3],23.93 pg
same,MEAN CORPUSCULAR HEMOGLOBIN CONCENTRATION,[3],38.67 G/DL
same,MEAN CORPUSCULAR VOLUME,[3],62 fL
same,MONOCYTE,[3],0.67%
same,NEUTROPHIL,[3],41%
same,NUCLEATED RED BLOOD CELLS,[3],0 /100WBC
same,PLATELET COUNT,[3],1193.33 x10E3/uL
same,ALANINE AMINOTRANSFERASE,[3],118.67 u/L
same,ALBUMIN,[3],3.1 G/DL
same,ALKALINE PHOSPHATASE,[3],333 u/L
same,ASPARTATE AMINOTRANSFERASE,[3],517.33 u/L
same,BLOOD UREA NITROGEN,[3],95 mg/dL
same,CARBON DIOXIDE,[3],24 mmol/L
same,CHLORIDE,[3],100 MEQ/L
same,CHOLESTEROL,[3],98.67 mg/dL
same,CREATINE PHOSPHOKINASE,[3],1977.67 u/L
same,CREATININE,[3],1.67 mg/dL
same,GLUCOSE,[3],129.67 mg/dL
same,LACTATE DEHYDROGENASE,[3],1234.67 u/L
same,LIPASE,[3],10 u/L
same,PHOSPHORUS,[3],17.23 mg/dL
same,POTASSIUM,[3],5.62 MEQ/L
same,SODIUM,[3],140.85 MEQ/L
same,TOTAL BILIRUBIN,[3],0.2 mg/dL
same,TOTAL PROTEIN,[3],5.9 G/DL
same,URIC ACID,[3],1.93 mg/dL
same,ABSOLUTE BASOPHIL,[4],0 CELLS/uL
same,ABSOLUTE EOSINOPHIL,[4],37.4 CELLS/uL
same,ABSOLUTE LYMPHOCYTE,[4],15678.4 CELLS/uL
same,ABSOLUTE MONOCYTE,[4],350.8 CELLS/uL
same,ABSOLUTE SEGMENTED NEUTROPHIL,[4],1413.4 CELLS/uL
same,BASOPHIL,[4],0%
same,EOSINOPHIL,[4],0.2%
same,ERYTHROCYTE COUNT,[4],6.14 x10E6/uL
same,HEMATOCRIT,[4],35.74%
same,HEMOGLOBIN,[4],13.9 G/DL
same,LEUKOCYTE COUNT,[4],17.48 x10E3/uL
same,LYMPHOCYTE,[4],89.8%
same,MEAN CORPUSCULAR HEMOGLOBIN,[4],22.62 pg
same,MEAN CORPUSCULAR HEMOGLOBIN CONCENTRATION,[4],38.88 G/DL
same,MEAN CORPUSCULAR VOLUME,[4],58.22 fL
same,MONOCYTE,[4],2%
same,NEUTROPHIL,[4],8%
same,NUCLEATED RED BLOOD CELLS,[4],0.2 /100WBC
same,PLATELET COUNT,[4],1031.8 x10E3/uL
same,ALANINE AMINOTRANSFERASE,[4],34.8 u/L
same,ALBUMIN,[4],3.62 G/DL
same,ALKALINE PHOSPHATASE,[4],233.8 u/L
same,ASPARTATE AMINOTRANSFERASE,[4],68.4 u/L
same,BLOOD UREA NITROGEN,[4],19.4 mg/dL
same,CARBON DIOXIDE,[4],30.2 mmol/L
same,CHLORIDE,[4],98.6 MEQ/L
same,CHOLESTEROL,[4],99.6 mg/dL
same,CREATINE PHOSPHOKINASE,[4],347.4 u/L
same,CREATININE,[4],0.2 mg/dL
same,GLUCOSE,[4],143.4 mg/dL
same,LACTATE DEHYDROGENASE,[4],272.4 u/L
same,LIPASE,[4],9.2 u/L
same,PHOSPHORUS,[4],10.48 mg/dL
same,POTASSIUM,[4],5.5 MEQ/L
same,SODIUM,[4],142.72 MEQ/L
same,TOTAL BILIRUBIN,[4],0.1 mg/dL
same,TOTAL PROTEIN,[4],5.84 G/DL
same,URIC ACID,[4],1.34 mg/dL

# — ChEMBL document CHEMBL3885881, “DrugMatrix”
